Biological target: Prothrombin (Homo sapiens, UniProt P00734)
Test: Binding Affinity to Thrombin

Ki [nM] | SMILES
620 | NC(N)c1ccc(CC(=O)C(=O)O)cc1
300 | NC(N)c1ccccc1
